Results published in US20200345725A1, “Methods and Compositions for Treating Cancer” (Omeros Corporation, priority 2019, published 2020).
Where “and” joins values, the source holds several entries; their conditions need not be identical. Identical values can stand only once. Marks after values point to notes of the source that are not given here.

Experiments:
Format in all cases: cell-based
[1] = tested on: mouse splenocytes; experiment: IL-2 levels in supernatants of cultured mouse splenocytes (WT or GPR174-KO) stimulated with anti-CD3 and anti-CD28, MSD platform; conditions: WT splenocytes, no NECA, 2 days; compound 10 1 μM, ZM-241385 0.1 μM; FIG. 68A
Procedure: To make single cell suspensions from mouse splenocytes, spleens were cut into 1-2 mm^3 pieces with a razor blade and incubated at 37° C. with 10 μg/mL DNase and 1 mg/mL Collagenase D with agitation for 90 min. Spleen fragments and cells were then pressed through a nylon screen, and the resulting cell suspension was washed. In 96-well flat-bottom plates, splenocytes were cultured in quadruplicate with the following conditions for 2 days, after which supernatants were tested for cytokine levels with the MSD platform.
Anti-CD3 (clone 2C11; 0.1 μg/mL)
GPR174 inhibitor (compound 10, 1 μM or 0.3 μM, or DMSO vehicle control)
GPR174 inhibitor (compound 6, 0.3 μM, or DMSO vehicle control)
Adenosine receptor agonist (NECA, 0.1 μM)

[2] = target: GPR174 (Homo sapiens, UniProt Q9BXC1); experiment: CRE-Luc reporter Gs signaling assay with GPR174; set-up: host or cells: HEK293 or CHO cell lines (ATCC)
[3] = tested on: human PBMCs; experiment: Th1 cytokines in supernatants of stimulated human PBMC, GPR174 inhibitor with adenosine pathway inhibitors (Examples 15, 18-22); conditions: for IFN-γ fold increase (FIG. 44): Example 15; for IFN-γ, ratio relative to vehicle control (Veh column) / IL-2, ratio relative to vehicle control (Veh column) / TNF, ratio relative to vehicle control (Veh column): Cmpd 10 1, ZM 0.1, PBF 0.1, SCH 0.2 μM, ADA 0.75 μg/mL; for IFN-γ, ratio relative to vehicle control (MRS) / IL-2, ratio relative to vehicle control (MRS column) / TNF, ratio relative to vehicle control (MRS column): MRS-1754 1 μM added to the agent(s) of the label, label MRS = MRS alone
In short: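 Human donor PBMCs (1×10^6 cells/well) were stimulated with 1 µg/mL anti-CD3 (UCHT1) plus 0.1 µg/mL anti-CD28 (CD28.2) for 24 h with test agents. IFN-γ, IL-2, TNF and GM-CSF in supernatants were measured by ELISA, Legendplex or MSD. Fold changes were compared by one-way ANOVA with Tukey correction.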

[4] = 12 donors, Cmpd 10 1-2 μM, ZM 0.2-1 μM
[5] = 12 donors, Cmpd 10 1-2 μM, ZM 0.2-1 μM, 24 h
[6] = donor 1, 24 h, Cmp 10 2 μM alone
[7] = donor 1, 24 h, Cmp 10 2 μM alone, listed as Cmp 10
[8] = donor 1, SCH-58261 0.2 μM, alone (label SCH) or with Cmp 10 2 μM (label Cmp 10)
[9] = donor 1, SCH-58261 0.6 μM, alone (label SCH) or with Cmp 10 2 μM (label Cmp 10)
[10] = donor 1, SCH-58261 2 μM, alone (label SCH) or with Cmp 10 2 μM (label Cmp 10)
[11] = donor 2, Cmpd 10 1 μM alone, listed as Cmpd 10
[12] = donor 2, PBF-509 0.1 μM, alone (label PBF) or with Cmpd 10 1 μM (label Cmpd 10)
[13] = donor 2, PBF-509 0.1 μM, alone (label PBF) or with Cmpd 10 1 μM (label Cmpd 10), listed as Cmpd 10
[14] = donor 2, ZM-241385 0.2 μM, alone (label ZM) or with Cmpd 10 1 μM (label Cmpd 10)
[15] = donor 2, ZM-241385 0.2 μM, alone (label ZM) or with Cmpd 10 1 μM (label Cmpd 10), listed as Cmpd 10
[16] = donor 3, no MRS, listed as Cmpd 10
[17] = donor 3, PBF-509 0.2 μM, alone (label PBF) or with Cmpd 10 1 μM (label Cmpd 10)
[18] = donor 3, PBF-509 0.2 μM, alone (label PBF) or with Cmpd 10 1 μM (label Cmpd 10), listed as Cmpd 10
[19] = donor 3, ZM-241385 0.2 μM, alone (label ZM) or with Cmpd 10 1 μM (label Cmpd 10)
[20] = donor 3, ZM-241385 0.2 μM, alone (label ZM) or with Cmpd 10 1 μM (label Cmpd 10), listed as Cmpd 10
[21] = donor 6, no MRS, listed as Cmpd 10
[22] = donor 7, high and low concentrations, ZM 0.1 μM
[23] = donor 7, no ZM, 0.3 μM (compound 20: 3 μM)
[24] = donor 7, no ZM, 1 μM (compound 20: 10 μM)
[25] = donor 7, with ZM-241385 0.1 μM, 0.3 μM (compound 20: 3 μM)
[26] = donor 7, with ZM-241385 0.1 μM, 1 μM (compound 20: 10 μM), label ZM = ZM alone

GPR174, sequence (Q9BXC1 whole entry): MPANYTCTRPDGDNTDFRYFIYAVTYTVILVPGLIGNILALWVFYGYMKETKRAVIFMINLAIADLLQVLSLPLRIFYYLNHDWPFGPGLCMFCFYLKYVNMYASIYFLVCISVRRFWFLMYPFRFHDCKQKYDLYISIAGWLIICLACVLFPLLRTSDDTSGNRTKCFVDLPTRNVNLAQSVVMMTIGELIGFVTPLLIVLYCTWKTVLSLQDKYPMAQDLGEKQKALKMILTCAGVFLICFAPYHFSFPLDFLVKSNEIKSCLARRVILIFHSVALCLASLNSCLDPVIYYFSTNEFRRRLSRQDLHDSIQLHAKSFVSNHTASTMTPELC

## CC1CCN(c2cc(N3CCN(S(=O)(=O)c4ccccc4)CC3)c([N+](=O)[O-])cc2F)CC1 [compound 10]
[1]
  increase of IL-2 levels: greater than 4 fold
[2]; increasing concentrations of compound
  Gs pathway in the presence of GPR174 (CRE-Luc reporter): inhibited
[2]; pCRE-Luc reporter
  Fold decrease in Gs signaling activity: 5.1 fold
[2]; pCRE-Luc reporter, multiple values = separate experiments
  EC50: 200 nM and 500 nM
[3]; 9 donors, Cmpd 10 1-2 μM, ZM 0.2-1 μM
  GM-CSF fold-change (FC) vs ZM alone: 1.1 fold
[3]; 9 donors, Cmpd 10 1-2 μM, ZM 0.2-1 μM, 24 h
  GM-CSF mean fold-change (FC) vs vehicle: 1.4 fold
[3]; [4]
  IFN-γ fold-change (FC) vs ZM alone: 1.3 fold
  IL-2 fold-change (FC) vs ZM alone: 1.2 fold
  TNF fold-change (FC) vs ZM alone: 1.3 fold
[3]; [5]
  IFN-γ mean fold-change (FC) vs vehicle: 2.8 fold
  IL-2 mean fold-change (FC) vs vehicle: 1.7 fold
  TNF mean fold-change (FC) vs vehicle: 2.7 fold
[3]; 24 h, ZM241385 1 μM, alone (label ZM241385) or with compound 10 3 μM (label compound 10)
  IFN-γ fold increase (FIG. 44): 9.3 fold
[3]; 24 h, ZM241385 10 μM, alone (label ZM241385) or with compound 10 3 μM (label compound 10)
  IFN-γ fold increase (FIG. 44): 17.1 fold
[3]; 24 h, compound 10 3 μM alone
  IFN-γ fold increase (FIG. 44): 2.3 fold
[3]; [6]
  IFN-γ fold-change relative to vehicle control: 4.9 fold
  IL-2 fold-change relative to vehicle control: no effect
  TNF fold-change relative to vehicle control: 4.2 fold
[3]; [7]
  IFN-γ fold-change relative to vehicle control: 4.9* fold
  IL-2 fold-change relative to vehicle control: 0.9 fold
  TNF fold-change relative to vehicle control: 4.2* fold
[3]; [8]
  IFN-γ fold-change relative to vehicle control: 11.8* fold
  IL-2 fold-change relative to vehicle control: 1.5* fold
  TNF fold-change relative to vehicle control: 14.2* fold
[3]; [9]
  IFN-γ fold-change relative to vehicle control: 11.3* fold
  IL-2 fold-change relative to vehicle control: 1.4* fold
  TNF fold-change relative to vehicle control: 15.9* fold
[3]; [10]
  IFN-γ fold-change relative to vehicle control: 11.0* fold
  IL-2 fold-change relative to vehicle control: 1.4* fold
  TNF fold-change relative to vehicle control: 14.7* fold
[3]; donor 2, Cmpd 10 1 μM alone
  IFN-γ fold-change relative to vehicle control: 1.6 fold
  IL-2 fold-change relative to vehicle control: 1.1 fold
  TNF fold-change relative to vehicle control: 1.5 fold
[3]; [11]
  IFN-γ fold-change relative to vehicle control: 1.6* fold
  TNF fold-change relative to vehicle control: 1.5* fold
[3]; [12]
  IFN-γ fold-change relative to vehicle control: 3.5 fold
  IL-2 fold-change relative to vehicle control: 2.0 fold
  TNF fold-change relative to vehicle control: 2.3 fold
[3]; [13]
  IFN-γ fold-change relative to vehicle control: 3.5* fold
  IL-2 fold-change relative to vehicle control: 2.0* fold
  TNF fold-change relative to vehicle control: 2.3* fold
[3]; [14]
  IFN-γ fold-change relative to vehicle control: 8.8 fold
  IL-2 fold-change relative to vehicle control: 2.6 fold
  TNF fold-change relative to vehicle control: 4.0 fold
[3]; [15]
  IFN-γ fold-change relative to vehicle control: 8.8* fold
  IL-2 fold-change relative to vehicle control: 2.6* fold
  TNF fold-change relative to vehicle control: 4.0* fold
[3]; donor 3
  IFN-γ, MRS/Veh: ratio in the presence vs. the absence of MRS-1754: 0.8*
  IL-2, MRS/Veh: ratio in the presence vs. the absence of MRS-1754: 1.5*
  TNF, MRS/Veh: ratio in the presence vs. the absence of MRS-1754: 1.1
  IFN-γ, ratio relative to vehicle control (MRS): 2.2* fold
  IL-2, ratio relative to vehicle control (MRS column): 4.3 fold
  TNF, ratio relative to vehicle control (MRS column): 4.6* fold
[3]; donor 3, no MRS
  IFN-γ, ratio relative to vehicle control (Veh column): 2.8 fold
  IL-2, ratio relative to vehicle control (Veh column): 2.9 fold
  TNF, ratio relative to vehicle control (Veh column): 4.1 fold
[3]; [16]
  IFN-γ, ratio relative to vehicle control (Veh column): 2.8* fold
  IL-2, ratio relative to vehicle control (Veh column): 2.9* fold
  TNF, ratio relative to vehicle control (Veh column): 4.1* fold
[3]; donor 3, Cmpd 10 1 μM alone
  IFN-γ fold-change relative to vehicle control: 1.2 fold
  IL-2 fold-change relative to vehicle control: 1.1 fold
  TNF fold-change relative to vehicle control: 1.5 fold
[3]; donor 3, Cmpd 10 1 μM alone, listed as Cmpd 10
  TNF fold-change relative to vehicle control: 1.5* fold
[3]; donor 3, listed as Cmpd 10
  IL-2, ratio relative to vehicle control (MRS column): 4.3* fold
[3]; [17]
  IFN-γ fold-change relative to vehicle control: 1.8 fold
  IL-2 fold-change relative to vehicle control: 1.6 fold
  TNF fold-change relative to vehicle control: 2.9 fold
[3]; [18]
  IFN-γ fold-change relative to vehicle control: 1.8* fold
  IL-2 fold-change relative to vehicle control: 1.6* fold
  TNF fold-change relative to vehicle control: 2.9* fold
[3]; [19]
  IFN-γ fold-change relative to vehicle control: 2.5 fold
  IL-2 fold-change relative to vehicle control: 2.3 fold
  TNF fold-change relative to vehicle control: 4.6 fold
[3]; [20]
  IFN-γ fold-change relative to vehicle control: 2.5* fold
  IL-2 fold-change relative to vehicle control: 2.3* fold
  TNF fold-change relative to vehicle control: 4.6* fold
[3]; donor 6
  IFN-γ, MRS/Veh: ratio in the presence vs. the absence of MRS-1754: 1.1
  IL-2, MRS/Veh: ratio in the presence vs. the absence of MRS-1754: 1.4*
  TNF, MRS/Veh: ratio in the presence vs. the absence of MRS-1754: 1.4*
  IFN-γ, ratio relative to vehicle control (MRS): 1.3* fold
  IL-2, ratio relative to vehicle control (MRS column): 1.4 fold
  TNF, ratio relative to vehicle control (MRS column): 2.1 fold
[3]; donor 6, no MRS
  IFN-γ, ratio relative to vehicle control (Veh column): did not significantly increase
  IL-2, ratio relative to vehicle control (Veh column): 1.7 fold
  TNF, ratio relative to vehicle control (Veh column): 1.4 fold
[3]; [21]
  IFN-γ, ratio relative to vehicle control (Veh column): 1.2 fold
  IL-2, ratio relative to vehicle control (Veh column): 1.7* fold
  TNF, ratio relative to vehicle control (Veh column): 1.4* fold
[3]; donor 6, listed as Cmpd 10
  IL-2, ratio relative to vehicle control (MRS column): 2.3* fold
  TNF, ratio relative to vehicle control (MRS column): 2.1* fold
[3]; [22]
  synergy with ZM on GM-CSF (greater than the sum of the increases with each inhibitor alone): synergized with ZM
  synergy with ZM on IFN-γ (greater than the sum of the increases with each inhibitor alone): synergized with ZM
  synergy with ZM on IL-2 (greater than the sum of the increases with each inhibitor alone): synergized with ZM
  synergy with ZM on TNF (greater than the sum of the increases with each inhibitor alone): synergized with ZM
[3]; [23]
  GM-CSF, ratio relative to vehicle control: 3.6*
  IFN-γ, ratio relative to vehicle control: 2.1*
  IL-2, ratio relative to vehicle control: 1.7*
  TNF, ratio relative to vehicle control: 2.2*
[3]; [24]
  GM-CSF, ratio relative to vehicle control: 3.1*
  IFN-γ, ratio relative to vehicle control: 2.2*
  IL-2, ratio relative to vehicle control: 1.6*
  TNF, ratio relative to vehicle control: 2.2*
[3]; [25]
  GM-CSF, ratio relative to vehicle control: 6.2*
  IFN-γ, ratio relative to vehicle control: 3.7*
  IL-2, ratio relative to vehicle control: 2.0*
  TNF, ratio relative to vehicle control: 3.6*
[3]; [26]
  GM-CSF, ratio relative to vehicle control: 5.9*
  IFN-γ, ratio relative to vehicle control: 3.7*
  IL-2, ratio relative to vehicle control: 2.2*
  TNF, ratio relative to vehicle control: 3.8*
